One experiment has as its system c-Myc. The experiment in a line: c-Myc activity (Table I, biological activities). Also on record: key: + (less active); ++ (active); +++ (most active).
The next experiment has as its target T1, SUMO (Homo sapiens, UniProt Q9UBT2).
T1 sequence (Q9UBT2 1-640): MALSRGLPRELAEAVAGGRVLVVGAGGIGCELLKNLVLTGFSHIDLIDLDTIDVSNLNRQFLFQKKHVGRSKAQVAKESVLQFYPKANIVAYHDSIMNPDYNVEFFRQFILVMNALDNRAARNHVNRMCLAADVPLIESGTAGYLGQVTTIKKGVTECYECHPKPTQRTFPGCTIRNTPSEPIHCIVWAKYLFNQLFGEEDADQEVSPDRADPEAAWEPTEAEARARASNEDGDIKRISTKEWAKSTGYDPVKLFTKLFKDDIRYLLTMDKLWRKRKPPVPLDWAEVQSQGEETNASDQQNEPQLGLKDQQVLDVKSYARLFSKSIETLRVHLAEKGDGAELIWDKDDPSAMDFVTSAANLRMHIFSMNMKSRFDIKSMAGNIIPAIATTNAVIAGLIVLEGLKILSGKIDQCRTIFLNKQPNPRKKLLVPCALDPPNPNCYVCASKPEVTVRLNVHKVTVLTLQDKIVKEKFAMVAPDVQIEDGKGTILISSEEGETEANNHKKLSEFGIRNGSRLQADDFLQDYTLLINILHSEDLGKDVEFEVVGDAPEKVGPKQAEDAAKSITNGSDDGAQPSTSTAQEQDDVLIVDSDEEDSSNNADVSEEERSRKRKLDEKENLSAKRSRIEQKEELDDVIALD
T1 sequence (Q9UBE0 1-346 partner): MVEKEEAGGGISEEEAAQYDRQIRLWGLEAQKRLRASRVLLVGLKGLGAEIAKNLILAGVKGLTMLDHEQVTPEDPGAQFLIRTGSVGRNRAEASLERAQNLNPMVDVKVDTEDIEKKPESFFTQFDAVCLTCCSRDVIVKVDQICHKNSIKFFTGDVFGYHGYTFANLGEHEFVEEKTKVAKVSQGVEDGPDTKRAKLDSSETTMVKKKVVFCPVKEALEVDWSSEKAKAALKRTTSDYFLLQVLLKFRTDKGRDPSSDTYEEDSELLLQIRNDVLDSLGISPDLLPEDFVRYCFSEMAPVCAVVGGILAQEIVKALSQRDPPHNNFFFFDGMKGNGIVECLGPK
Put plainly: SUMO activity (Table I, biological activities). The class given is biochemical. Also on record: key: + (less active); ++ (active); +++ (most active).

On to `COC(=O)C1=C(C(=O)NC2CCN(C(=O)c3cncnc3)CC2)C2C=CC1(C(Cc1ccccc1)Nc1ccccc1)O2` (stereo not drawn) [Compound 390], for which, in the experiment with c-Myc, the c-Myc entry is listed as “+”. Besides, on SUMO, the SUMO entry is on record as “++”.

`COC(=O)C1=C(C(=O)OC)C2(C(Cc3ccc(F)cc3)Nc3ccccc3)C=CC1O2` (stereo not drawn) [Compound 445]: the c-Myc result in the experiment with c-Myc is given as “+”. Also, on SUMO, the SUMO result was “++”.

Turning to `COC(=O)C1=C(C(=O)NC2CCNCC2)C2C=CC1(C(Cc1ccccc1)Nc1ccccc1)O2` (stereo not drawn) [Compound 225], the c-Myc entry with c-Myc is listed as “++”. For the same compound, the SUMO result on SUMO is “+++”.

As for `COC(=O)C1=C(C(=O)OC)C2(C(Cc3ccccc3)Nc3ccc(F)cc3F)C=CC1O2` (stereo not drawn) [Compound 171], in the experiment with c-Myc, the c-Myc result was “++”. The SUMO entry on SUMO was “++”.

Consider `COC(=O)C1=C(C(=O)NCCN(C)C)C2C=CC1(C(Cc1ccccc1F)Nc1cc(F)cc(F)c1)O2` (stereo not drawn) [Compound 455], for which the c-Myc result in the experiment on c-Myc is listed as “++”. Besides, the SUMO entry on SUMO is listed as “++”.

In the case of `COC(=O)C1=C(C(=O)NCCN(C)C(=O)OC(C)(C)C)C2C=CC1(C(Cc1ccccc1)Nc1ccccc1)O2` (stereo not drawn) [Compound 419], the c-Myc entry in the experiment on c-Myc is “+”. Besides, the SUMO entry at SUMO was “++”.

Take `CCOC(=O)C1=C(C(=O)Nc2ccc(F)cc2)C2C=CC1(C(Nc1ccccc1)c1ccc(CN3CCOCC3)cc1)O2` (stereo not drawn) [Compound 601]: the c-Myc result with c-Myc is reported as “+”. Also, at SUMO, the SUMO result is given as “++”.

Regarding `CCN(CC)CCNC(=O)C1=C(C(=O)OC)C2(C(Cc3ccc(C)cc3)Nc3cc(F)cc(F)c3)C=CC1O2` (stereo not drawn) [Compound 429], in the experiment on c-Myc, the c-Myc result is “++”. Besides, at SUMO, the SUMO result was “++”.

In the case of `COC(=O)C1=C(C(N)=O)C2C=CC1(C(Cc1ccccc1)Nc1ccccc1)O2` (stereo not drawn) [Compound 151], in the experiment with c-Myc, the c-Myc result is on record as “+”. In addition, at SUMO, the SUMO entry is on record as “++”.

For `CCOC(=O)C1=C(C(=O)NCCN(CC)CC)C2C=CC1(C(Cc1ccccc1)Nc1c(F)cccc1F)O2` (stereo not drawn) [Compound 434], the c-Myc entry in the experiment with c-Myc is given as “++”. Moreover, the SUMO entry on SUMO is reported as “++”.

With `COC(=O)C1=C(C(=O)Nc2ccc(OC)cc2)C2CCC1(C(Cc1ccccc1)Oc1ccccc1)O2` (stereo not drawn) [Compound 350], the c-Myc entry in the experiment with c-Myc is reported as “+”. The SUMO result on SUMO is given as “+”.

Turning to `C=CCC(Nc1ccccc1)C12C=CC(O1)C(C(=O)NCCN(CC)CC)=C2C(=O)OC` (stereo not drawn) [Compound 416], the c-Myc entry with c-Myc is listed as “+”. For the same compound, the SUMO result at SUMO is listed as “++”.

`CCOC(=O)C1=C(C(F)(F)F)C2(C(Cc3ccccc3)Oc3ccccc3)C=CC1O2` (stereo not drawn) [Compound 513]: the c-Myc result in the experiment with c-Myc is listed as “++”. Moreover, the SUMO entry on SUMO is listed as “++”.

As to `CNC(=O)C1=C(C(=O)OC)C2(C(Cc3ccccc3)Nc3cc(F)cc(F)c3)C=CC1O2` (stereo not drawn) [Compound 208], the c-Myc result with c-Myc is reported as “+”. In addition, at SUMO, the SUMO result is “++”.

For the compound `C=CCCC(Nc1ccccc1)C12C=CC(O1)C(C(=O)Nc1ccc(OC)cc1)=C2C(=O)OC` (stereo not drawn) [Compound 176], the c-Myc entry in the experiment on c-Myc is recorded as “+”. In addition, at SUMO, the SUMO entry is given as “++”.

For the compound `CCOC(=O)C1=C(C(=O)OCC)C2(C(Cc3ccccc3)Nc3ccccc3)C=CC1(C)O2` (stereo not drawn) [Compound 260], in the experiment on c-Myc, the c-Myc result was “+”. At SUMO, the SUMO entry is on record as “++”.

Turning to `COC(=O)C1=C(C(=O)Nc2ccccc2OC)C2C=CC1(C(Cc1ccccc1)Nc1ccccc1)O2` (stereo not drawn) [Compound 352], the c-Myc result in the experiment with c-Myc is recorded as “+”. Also, the SUMO result on SUMO is “++”.

On to `COC(=O)C1=C(C(=O)NC(C)C(N)=O)C2C=CC1(C(Cc1ccccc1)Nc1cc(F)cc(F)c1)O2` (stereo not drawn) [Compound 243], for which the c-Myc result in the experiment on c-Myc is “+”. Also, at SUMO, the SUMO entry was “++”.

`CCOC(=O)C1=C(C(=O)Nc2ccc(C)c(F)c2)C2C=CC1(C(Oc1ccc(F)cc1)c1ccc(CN3CCOCC3)cc1)O2` (stereo not drawn) [Compound 486]: the c-Myc entry in the experiment with c-Myc is “++”. On SUMO, the SUMO result was “+”.

On to `COC(=O)C1=C(C(=O)Nc2c(C)cccc2C)C2C=CC1(C(Cc1ccccc1)Nc1ccccc1)O2` (stereo not drawn) [Compound 354], for which the c-Myc entry in the experiment on c-Myc is on record as “+”. Besides, the SUMO result at SUMO is “+”.

With `COC(=O)C1=C(C(=O)Nc2ccc(C)nc2)C2C=CC1(C(Cc1ccccc1)Nc1ccccc1)O2` (stereo not drawn) [Compound 289], in the experiment on c-Myc, the c-Myc result is “++”. Moreover, the SUMO entry at SUMO is given as “++”.
